Where two headings read alike, the source gives them in different places. Each block holds one compound with its values, some of them ahead of it.
Legend:
O-GlcNAcase = O-GlcNAcase (Rattus norvegicus (Rat), UniProt Q8VIJ5); assay: Cell-based ELISA of O-GlcNAcylated protein (RL-2 antibody) for cellular O-GlcNAcase inhibition
Description: Assay for Determination of Cellular Activity for Compounds that Inhibit O-GlcNAcase Activity
Inhibition of O-GlcNAcase, which removes O-GlcNAc from cellular proteins, results in an increase in the level of O-GlcNAcylated protein in cells. An increase in O-GlcNAcylated protein can be measured by an antibody, such as RL-2, that binds to O-GlcNAcylated protein. The amount of O-GlcNAcylated protein:RL2 antibody interaction can be measured by enzyme linked immunosorbant assay (ELISA) procedures.
Compounds to be tested were dissolved in DMSO, either 2 or 10 mM stock solution, and then diluted with DMSO and water in a two-step process using a Tecan workstation. […] If desired, the total protein concentration of samples was determined using 20 μL of the sample using the BCA method. […]
The amount of O-GlcNAcylated protein, as detected by the ELISA assay, was plotted for each concentration of test compound using standard curve fitting algorithms for sigmoidal dose response curves. The values for a four parameter logistic curve fit of the data were determined, with the inflection point of the curve being the potency value for the test compound.

human O-GlcNAcase = human O-GlcNAcase (Homo sapiens (Human), UniProt O60502); assay: biochemical; details: purified human O-GlcNAcase, 4-methylumbelliferyl N-acetyl-β-D-glucosaminide substrate, pH 7.0, Cheng-Prusoff; read-out: Fluorescence-based hOGA Ki
Protocol: Assay for Determination of KI Values for Inhibition of O-GlcNAcase Activity
Experimental Procedure for Kinetic Analyses:
Enzymatic reactions were carried out in a reaction containing 50 mM NaH2PO4, 100 mM NaCl and 0.1% BSA (pH 7.0) using 2 mM 4-Methylumbelliferyl N-acetyl-β-D-glucosaminide dihydrate (Sigma M2133) dissolved in ddH2O, as a substrate. The amount of purified human O-GlcNAcase enzyme used in the reaction was 0.7 nM. Test compound of varying concentrations was added to the enzyme prior to initiation of the reaction. The reaction was performed at room temperature in a 96-well plate and was initiated with the addition of substrate. […] The slope of product production was determined for each concentration of compound tested and plotted, using standard curve fitting algorithms for sigmoidal dose response curves. The values for a four parameter logistic curve fit of the data were determined.

Chain of O-GlcNAcase (Q8VIJ5 whole entry): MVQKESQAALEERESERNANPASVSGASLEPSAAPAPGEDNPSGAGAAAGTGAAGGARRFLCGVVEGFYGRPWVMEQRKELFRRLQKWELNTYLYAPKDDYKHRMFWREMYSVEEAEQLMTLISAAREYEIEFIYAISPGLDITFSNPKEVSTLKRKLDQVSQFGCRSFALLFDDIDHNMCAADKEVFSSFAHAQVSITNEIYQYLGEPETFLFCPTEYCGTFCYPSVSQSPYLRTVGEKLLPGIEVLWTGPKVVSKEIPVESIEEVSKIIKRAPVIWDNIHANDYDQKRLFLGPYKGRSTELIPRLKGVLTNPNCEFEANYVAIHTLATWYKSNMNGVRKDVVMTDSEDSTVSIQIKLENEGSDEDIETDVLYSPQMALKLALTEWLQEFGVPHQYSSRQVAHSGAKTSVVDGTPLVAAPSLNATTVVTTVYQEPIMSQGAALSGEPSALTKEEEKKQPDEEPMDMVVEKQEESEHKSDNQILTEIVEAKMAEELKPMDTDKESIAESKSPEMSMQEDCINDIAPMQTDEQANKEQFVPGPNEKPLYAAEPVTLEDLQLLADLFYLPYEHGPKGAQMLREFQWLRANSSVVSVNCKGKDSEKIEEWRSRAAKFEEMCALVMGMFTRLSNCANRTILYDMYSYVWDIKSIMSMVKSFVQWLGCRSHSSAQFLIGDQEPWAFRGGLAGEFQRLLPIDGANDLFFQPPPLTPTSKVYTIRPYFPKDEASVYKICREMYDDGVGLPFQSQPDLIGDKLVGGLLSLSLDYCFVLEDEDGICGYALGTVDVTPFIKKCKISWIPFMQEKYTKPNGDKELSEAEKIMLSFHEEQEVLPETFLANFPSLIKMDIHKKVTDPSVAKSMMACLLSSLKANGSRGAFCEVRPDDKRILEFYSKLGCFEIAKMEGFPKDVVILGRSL
Chain of human O-GlcNAcase (O60502 whole entry): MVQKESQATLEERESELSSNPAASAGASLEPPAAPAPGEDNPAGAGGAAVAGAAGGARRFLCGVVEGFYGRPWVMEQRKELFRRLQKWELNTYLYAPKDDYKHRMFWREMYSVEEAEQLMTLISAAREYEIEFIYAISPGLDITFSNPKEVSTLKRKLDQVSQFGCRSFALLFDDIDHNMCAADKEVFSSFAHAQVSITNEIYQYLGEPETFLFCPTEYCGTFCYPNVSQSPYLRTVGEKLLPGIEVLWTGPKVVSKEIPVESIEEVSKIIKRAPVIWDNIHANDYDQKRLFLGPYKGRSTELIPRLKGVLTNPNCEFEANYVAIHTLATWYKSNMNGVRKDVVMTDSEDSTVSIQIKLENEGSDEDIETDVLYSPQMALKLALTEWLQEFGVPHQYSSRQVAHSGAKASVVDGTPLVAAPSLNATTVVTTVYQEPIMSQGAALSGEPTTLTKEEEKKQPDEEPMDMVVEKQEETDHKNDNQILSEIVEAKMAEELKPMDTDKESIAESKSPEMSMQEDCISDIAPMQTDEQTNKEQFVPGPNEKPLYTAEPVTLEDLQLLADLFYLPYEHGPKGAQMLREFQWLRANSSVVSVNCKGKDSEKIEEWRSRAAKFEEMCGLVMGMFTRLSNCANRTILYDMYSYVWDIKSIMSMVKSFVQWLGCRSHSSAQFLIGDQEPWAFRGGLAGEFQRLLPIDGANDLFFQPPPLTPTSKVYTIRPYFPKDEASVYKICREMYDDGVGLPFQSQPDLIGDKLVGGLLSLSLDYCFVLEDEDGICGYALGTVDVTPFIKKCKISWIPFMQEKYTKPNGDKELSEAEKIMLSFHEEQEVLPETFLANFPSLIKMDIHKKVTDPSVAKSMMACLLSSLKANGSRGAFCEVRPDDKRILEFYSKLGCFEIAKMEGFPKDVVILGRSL

Compound: CNC1=N[C@@H]2[C@@H](O)[C@H](O)[C@@H](COC(=O)N(C)C)O[C@@H]2S1 [Example 9, ((3aR,5R,6S,7R,7aR)-6,7-dihydroxy-2-(methylamino)-5,6,7,7a-tetrahydro-3aH-pyrano[3,2-d]thiazol-5-yl)methyl dimethylcarbamate]
- EC50 (O-GlcNAcase; rat PC-12 cells, 24 h treatment, O-GlcNAcylated protein detected with RL-2 antibody, read-out: Cell-based ELISA EC50): 212 nM

Compound: CNC1=N[C@@H]2[C@@H](O)[C@H](O)[C@@H](CNC3CCCC3)O[C@@H]2S1 [Example 37, (3aR,5R,6S,7R,7aR)-5-((cyclopentylamino)methyl)-2-(methylamino)-5,6,7,7a-tetrahydro-3aH-pyrano[3,2-d]thiazole-6,7-diol]
- EC50 (O-GlcNAcase): 3.7 nM

- Ki (human O-GlcNAcase): 5.4 nM
Compound: CNC1=N[C@@H]2[C@@H](O)[C@H](O)[C@@H](CNCC#N)O[C@@H]2S1 [Example 53, 2-((((3aR,5R,6S,7R,7aR)-6,7-dihydroxy-2-(methylamino)-5,6,7,7a-tetrahydro-3aH-pyrano[3,2-d]thiazol-5-yl)methyl)amino)acetonitrile]

Reference: patent US9718854B2, “Selective glycosidase inhibitors and uses thereof” (priority 2011, dated 2017)
